Results published in patent publication US6391914B1, “Optically active aminopentane derivatives” (Fujimoto Brothers Co., Ltd., priority 1998, dated 2002).
Where a name gives a salt, the structure may show the parent alone. Read-outs that look alike come from different tables or passages of the source.

Assays:
[1] = test system: isolated rat brain stem (electric-stimulated); assay: Biogenic amines released from the rat brain stem by electrostimulation; settings: for Minimum dose causing to release noradrenaline from electric-stimulated brain stem: electrostimulation 3 Hz, 1 ms, 60 V; for Minimum dose causing to release serotonin from electric-stimulated brain stem / Minimum dose causing to release dopamine from electric-stimulated brain stem: electrostimulation
[2] = test system: tetrabenazine-treated rats; assay: Conditioned avoidance task in the shuttle box, tetrabenazine-treated rats; type: in vivo, rat; settings: for Minimum dose to cause conditioned avoidance reflexes (CARs) in tetrabenazine-treated rats in shuttle box: with tetrabenazine 1 mg/kg s.c.
Method: The method described in Life Sci., 58, 817-827 (1996) was used. The effects on conditioned avoidance reflex (CARs) were analyzed in the shuttle box using male and female rats (weighing 200-220 g) whose learning abilities were reduced by the administration of tetrabenazine. The instrument was constructed, according to the device described in Psychopharmacologia 10, 1-5 (1966). The male and female rats (weighing 200-220 g) were trained to cross the barrier under a conditioned stimulus. (CS, light flash and buzzer sounds). […] In addition, the unconcerned performance to this condition was noted as an intersignal reaction (IR). The rats were trained with 100 trials a day for 5 days. Each trial was carried out with 15-sec intertrial interval. Tetrabenazine saline solution was subcutaneously administered at a dose of 1 mg/kg 1 hr before the test. Then the solution of the compounds of the invention was administered at the doses of 1, 2, 2.5 and 5 mg/kg, s.c., simultaneously with tetrabenazine. The numbers of CARs, EFs and IRs were automatically counted and analyzed using one-way analysis of variance (ANOVA).
Therefore, the compound has no stimulant-like excitement.

[3] = molecular target: T1, monoamine oxidase type-B (MAO-B) (Mus musculus, UniProt Q8BW75); assay: Mice brain MAO-B inhibition (14C-phenylethylamine); type: biochemical; settings: concentration of 10^−5 mol/L
T1 construct: the pellet was resuspended in the above buffer to be enzyme solution; from tissue; host or cells: whole brain of male C57Bl/6 mice, 40,000 g pellet
T1 sequence (Q8BW75 1-520): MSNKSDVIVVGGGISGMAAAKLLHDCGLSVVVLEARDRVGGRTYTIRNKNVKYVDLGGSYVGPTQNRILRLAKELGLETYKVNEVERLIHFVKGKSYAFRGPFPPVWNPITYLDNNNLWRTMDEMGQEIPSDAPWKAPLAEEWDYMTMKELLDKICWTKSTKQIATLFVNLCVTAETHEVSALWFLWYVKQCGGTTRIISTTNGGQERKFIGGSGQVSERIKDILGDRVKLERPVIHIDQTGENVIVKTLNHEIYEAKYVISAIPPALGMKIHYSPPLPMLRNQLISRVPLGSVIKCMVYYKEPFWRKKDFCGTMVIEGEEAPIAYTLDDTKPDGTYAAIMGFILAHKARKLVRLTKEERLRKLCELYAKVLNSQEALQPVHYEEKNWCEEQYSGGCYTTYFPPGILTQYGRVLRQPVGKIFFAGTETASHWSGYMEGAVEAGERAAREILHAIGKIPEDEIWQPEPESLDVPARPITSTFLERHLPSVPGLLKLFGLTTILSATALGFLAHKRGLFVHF
Method: After male C57B1/6 mice were decapitated, the whole brain was isolated immediately. The brain samples were weighed, and homogenized in 0.2 mol/L potassium phosphate buffer (pH 7.5) containing 1.0% EDTA-2Na by homogenizer. After the homogenate was centrifuged at 2,000 RPM for 20 min, the supernatant was centrifuged at 18,000 RPM (40,000 g) for 30 min. The pellet was resuspended, and further centrifuged in the same manner. Thereafter, the pellet was resuspended in the above buffer to be enzyme solution. All procedure was carried out at 4° C.
^14C-Labeled substrate (^14C-phenylethylamine) and enzyme solution from mice are mixed in test tube, incubated for 30 min at 37° C., and stopped the reaction with 20 μL of 6 mol/L Hcl. The reaction product was extracted with toluene-ethylacetate (1:1), and the radioactivity was measured using scintillation counter. Then, MAO-B inhibitory activity was calculated.

[4] = molecular target: α2 receptor; assay: Receptor affinity, 3H-rauwolscine binding; design: species or system rats; settings: 0.7 nmol/L 3H-rauwolscine, read-out: Affinity to α2 receptor: concentration showing 50% inhibition between ligand and receptor
Method: The receptor solution was prepared as follows. After the rats were decapitated, brain was immediately isolated and weighed. Thereafter, brain samples were homogenized in ten times volumes of ice-cold 0.35 mol/L sucrose (pH 7.4) using glass homogenizer with Teflon pestle, which was revolted by motors. The homogenate was centrifuged at 4° C. at 900×g for 10 min and the supernatant was, furthermore, recentrifuged at 4° C. at 22,000×g for 20 min. The precipitate was suspended with addition of 5 mmol/L phosphate buffer solution (pH 7.4). After the suspension was incubated at 37° C. for 30 min, the suspension was recentrifuged at 4° C. at 20,000×g for 20 min. The precipitate was resuspended in 10 ml of 5 mmol/L phosphate buffer solution (pH 8.0) to be receptor solution.
^3H-prazocin was used as a ligand. 0.25 nmol/L of ^3H-prazocin, the compounds of the invention and the receptor solution, which were respectively prepared in 5 mmol/L phosphate buffer (pH 8), were put in tube and the mixture was incubated at 25° C. for 90 min. In addition, the nonspecific binding was evaluated with binding value of ^3H-prazocin in the presence of 0.1 μmol/L prazocin. The binding assay was carried out as follows. After ^3H-prazocin (binding type: B) bound to receptor, only the binding type of ^3H-prazocin was collected using B/F separator (Brandel, USA) with glass fiber filter (pore size: 0.5 μm Whatman GF/C), and free type of prazocin (free type: F) was removed. Glass-fiber filter, absorbing the binding type of ^3H-prazocin, was washed with ice-cold saline solution and transferred to vial. After 10 ml of scintillation cocktail was put in it, the radioactivity was measured. Affinity of the compounds of the invention to α1 receptor was evaluated from the inhibition rate of binding between α1 receptor and the ligand.
Affinities of the compounds of the invention to receptors of α2, D1, D2, 5-HT1 and 5-HT2 were respectively determined in the same manner, while used 0.7 nmol/L ^3H-rauwolscine, 1.4 nmol/L ^3H-SCH-23390, 2.0 nmol/L spiperone, 2 nmol/L ^3H-5-HT and 0.5 nmol/L ^3H-ketanserin as each ligands. […]

[5] = test system: primary cultured hepatocyte; assay: Toxicity screening using primary cultured hepatocyte (LDH release); type: cell-based, rat; settings: 24 hr
Method: The hepatocytes was prepared from rat liver using collagenase perfusion method and the cell suspension containing 5×10^5 cells/mL were prepared. After cultivation for 24 hr, the medium was changed to the William's Medium E (GIBCO ERL) containing 10 or 100 μmol/L of the compounds of the invention. After cultivation for 24 hr, the activity of lactatedehydrogenase (LDH) released into the medium was measured.

How did the “Minimum dose causing to release noradrenaline from electric-stimulated brain stem” value [1] turn out when CCCNC(CCC)Cc1cc2ccccc2o1.Cl (racemic) [Racemic compound, (±)-1-(benzofuran-2-yl)-2-propylaminopentane hydrochloride] was run?
The value was 5 µg/mL.

And the “Minimum dose causing to release serotonin from electric-stimulated brain stem” value [1]?
The value was 1 µg/mL.

What about the “Minimum dose to cause conditioned avoidance reflexes (CARs) in tetrabenazine-treated rats in shuttle box” value (“Minimum dose … in shuttle box” for short) ([2]; s.c.) of the same compound?
Its value is 1 mg mg/kg.

And the inhibition at 10 µM ([3]; read-out: Mice brain MAO-B inhibitory activity)?
The inhibition at 10 µM was 22.9%.

And the IC50 [4]?
The IC50 was 1000 nM.

What about the “Percent control of LDH release from primary cultured hepatocyte” value (“Percent control of LDH release” below) ([5]; 10 μmol/L) of the same compound?
The value was 90.28 ± 2.85 Percent control.

What about the “Percent control of LDH release” value ([5]; 100 μmol/L) of the same compound?
The value was 112.10 ± 36.98 Percent control.

How did the “Minimum dose causing to release dopamine from electric-stimulated brain stem” value [1] turn out when CCCNC(CCC)Cc1cc2ccccc2o1.Cl (single isomer, unassigned; (+)) [(+)-Isomer, (+)-1-(benzofuran-2-yl)-2-propylaminopentane hydrochloride] was run?
Its value is 5 µg/mL.

And the “Minimum dose causing to release noradrenaline from electric-stimulated brain stem” value [1]?
Its value is 0.5 µg/mL.

And the “Minimum dose causing to release serotonin from electric-stimulated brain stem” value [1]?
The value was 10 µg/mL.

What about the “Minimum dose … in shuttle box” value ([2]; s.c.) of the same compound?
The value was 2.5 mg mg/kg.

What about the “Mice brain MAO-B inhibitory activity” value [3] of the same compound?
The value was 1.7%.

What about the IC50 ([4]; hydrochloride) of the same compound?
Its IC50 is 2600 nM.

What about the “Percent control of LDH release” value ([5]; 10 μmol/L) of the same compound?
The value was 124.41 ± 12.54 Percent control.

What about the “Percent control of LDH release” value ([5]; 100 μmol/L) of the same compound?
Its value is 116.72 ± 6.91 Percent control.

How did the “Minimum dose causing to release dopamine from electric-stimulated brain stem” value [1] turn out when CCCNC(CCC)Cc1cc2ccccc2o1 (single isomer, unassigned; (-)) [The compound of the invention, (−)-1-(benzofuran-2-yl)-2-propylaminopentane hydrochloride] was run?
The value was 0.05 µg/mL.

What about the “Noradrenaline, serotonin and dopamine release on electrostimulation (FIG. 1)” value ([1]; electrostimulated brain stem) of the same compound?
Its value is “confirmed to enhance noradrenaline, serotonin and dopamine release”.

And the “Minimum dose causing to release noradrenaline from electric-stimulated brain stem” value [1]?
Its value is 0.01 µg/mL.

What about the “Minimum dose causing to release serotonin from electric-stimulated brain stem” value [1] of the same compound?
Its value is 0.0005 µg/mL.

What about the “Minimum dose … in shuttle box” value ([2]; s.c.) of the same compound?
The value was 5 × 10^−2 mg mg/kg.

What about the “Reduced learning function of rats administered with tetrabenazine (FIG. 2)” value ([2]; shuttle box, s.c.) of the same compound?
The value was “significantly improved”.

And the “Intersignal reactions (IRs)” value ([2]; shuttle box, tetrabenazine-treated rats)?
The value was “did not significantly change IRs”.

And the “Mice brain MAO-B inhibitory activity” value [3]?
The value was 4.7%.

What about the IC50 ([4]; hydrochloride) of the same compound?
The IC50 was 3100 nM.

What about the “Percent control of LDH release” value ([5]; 10 μmol/L, hydrochloride) of the same compound?
Its value is 104.94 ± 4.96 Percent control.

And the “Percent control of LDH release” value ([5]; 10 μmol/L, listed as the compound of the invention, hydrochloride)?
Its value is “not increase”.

And the “Percent control of LDH release” value ([5]; 100 μmol/L, hydrochloride)?
The value was 126.42 ± 8.04 Percent control.

What about the “Percent control of LDH release” value ([5]; 100 μmol/L, listed as the compound of the invention, hydrochloride) of the same compound?
Its value is “slightly increased LDH release”.
